Measured values as given in publication PMC6920844, “Mechanism of Action and Interactions between Thyroid Peroxidase and Lipoxygenase Inhibitors Derived from Plant Sources” (Biomolecules, 2019).
Marks after values point to notes of the source that are not given here.

How the values were obtained:
[1] = ABTS radical scavenging activity (in vitro antioxidant capacity assay)
Description: The ABTS radical scavenging activity was determined according to Re et al. [19], with some modifications. A 250 µL ABTS solution was mixed with 10 µL of each pure polyphenols solutions (concentration 50 µg/mL), ethanol extracts, and digested extracts (concentrations: 0.3 mg/mL), and then was measured at the wavelength 724 nm using a UV/Vis spectrophotometer (BioTek, Model Epoch2TC, Winooski, VT, USA) after 15 min of incubation at room temperature. The inhibition percentage of ABTS discoloration was calculated using the fallowing equation:AA = [(Ac − Ap)/(Ac)] × 100%(1) where Ac is the absorbance of control, Ap is the absorbance of pure polyphenols solutions

thyroid peroxidase (TPO) = target: T1, thyroid peroxidase (TPO) (Sus scrofa, UniProt P09933); test: Thyroid peroxidase inhibitory assay (guaiacol assay, Lineweaver–Burk plot); conditions: for Vmax (TPO) / Mode of Inhibition (TPO) / EFC50 (effective concentration inhibiting TPO in 50%) / Ki (TPO): pure polyphenol solutions; for Mode of Inhibition (TPO): Lineweaver–Burk
T1 sequence (P09933 15-926): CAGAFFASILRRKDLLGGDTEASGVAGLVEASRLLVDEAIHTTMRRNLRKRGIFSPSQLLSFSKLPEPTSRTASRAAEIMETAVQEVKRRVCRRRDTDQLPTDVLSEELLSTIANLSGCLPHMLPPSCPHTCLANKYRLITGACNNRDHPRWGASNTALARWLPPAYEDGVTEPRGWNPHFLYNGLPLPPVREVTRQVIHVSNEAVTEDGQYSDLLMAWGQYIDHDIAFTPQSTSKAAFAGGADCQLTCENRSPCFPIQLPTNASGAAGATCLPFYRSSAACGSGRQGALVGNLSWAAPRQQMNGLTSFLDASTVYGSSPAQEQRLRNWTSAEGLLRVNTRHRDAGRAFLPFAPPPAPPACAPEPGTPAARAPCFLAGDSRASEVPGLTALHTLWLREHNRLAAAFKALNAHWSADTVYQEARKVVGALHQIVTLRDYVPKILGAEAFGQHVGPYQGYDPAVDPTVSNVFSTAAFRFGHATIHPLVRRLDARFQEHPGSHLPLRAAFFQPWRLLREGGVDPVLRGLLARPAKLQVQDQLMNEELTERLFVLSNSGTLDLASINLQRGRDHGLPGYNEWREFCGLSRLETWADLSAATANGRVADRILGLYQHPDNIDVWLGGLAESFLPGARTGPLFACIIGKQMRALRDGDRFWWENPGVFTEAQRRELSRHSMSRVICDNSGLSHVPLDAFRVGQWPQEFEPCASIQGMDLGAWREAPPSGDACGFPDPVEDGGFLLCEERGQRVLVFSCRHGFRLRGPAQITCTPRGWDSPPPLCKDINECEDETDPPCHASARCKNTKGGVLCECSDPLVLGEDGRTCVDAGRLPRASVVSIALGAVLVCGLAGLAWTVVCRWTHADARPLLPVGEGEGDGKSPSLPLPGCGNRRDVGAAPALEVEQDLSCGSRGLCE

[2] = pure polyphenols, values in text

O=c1cc(-c2ccc(O)cc2)oc2cc(O)cc(O)c12 [Apigenin, apigenin]
ABTS radical scavenging ability IC50 ([1]; pure chemical standards): 0.406 ± 0.003 ^c mg/mL | ABTS radical scavenging ability IC50 [1, 2]: 405.93 µg/mL | IC50 (thyroid peroxidase (TPO)): 430 µM | Ki (thyroid peroxidase (TPO)): 1250 µM | Vmax (TPO) (thyroid peroxidase (TPO)): 149.25 ± 5.12 ^a ΔAU/min | Mode of Inhibition (TPO) (thyroid peroxidase (TPO)): Uncompetitive

O=c1c(O)c(-c2ccc(O)cc2)oc2cc(O)cc(O)c12 [Kaempferol, kaempferol]
ABTS radical scavenging ability IC50 ([1]; pure chemical standards): 0.337 ± 0.002 ^b mg/mL | IC50 (thyroid peroxidase (TPO)): 215 µM | Ki (thyroid peroxidase (TPO)): 653 µM | Vmax (TPO) (thyroid peroxidase (TPO)): 192.31 ± 8.34 ^b ΔAU/min | Mode of Inhibition (TPO) (thyroid peroxidase (TPO)): Competitive

O.Oc1cc(O)c2c(c1)O[C@H](c1ccc(O)c(O)c1)[C@@H](O)C2 [Catechin, catechin]
ABTS radical scavenging ability IC50 ([1]; pure chemical standards): 0.078 ± 0.008 ^a mg/mL | ABTS radical scavenging ability IC50 [1, 2]: 78.37 µg/mL | EFC50 (effective concentration inhibiting TPO in 50%) (thyroid peroxidase (TPO)): 29.76 ± 2.05 ^b µg/mL | Ki (TPO) (thyroid peroxidase (TPO)): 33.42 ± 1.35 ^a µg/mL | Vmax (TPO) (thyroid peroxidase (TPO)): 144.93 ± 4.33 ^a ΔAU/min | Mode of Inhibition (TPO) (thyroid peroxidase (TPO)): Competitive

COc1cc(C=CC(=O)O)cc(OC)c1O (stereo in doubt) [Sinapinic acid, sinapinic acid]
ABTS radical scavenging ability IC50 [1, 2]: 84.33 µg/mL | EFC50 (effective concentration inhibiting TPO in 50%) (thyroid peroxidase (TPO)): 25.42 ± 1.13 ^a µg/mL | Ki (TPO) (thyroid peroxidase (TPO)): 45.92 ± 3.22 ^b µg/mL | Vmax (TPO) (thyroid peroxidase (TPO)): 149.25 ± 6.26 ^a ΔAU/min | Mode of Inhibition (TPO) (thyroid peroxidase (TPO)): Competitive
